Assay: xn = mol fraction of the nth substance listed, in the solute-free solvent

Nc1cncc(Cl)n1 + CN(C)C=O + O
solubility (g/100 g solution)
Conditions	278.15 K	283.15 K	288.15 K	293.15 K	298.15 K	303.15 K	308.15 K	313.15 K	318.15 K	323.15 K
x2 = 0.02666	–	–	–	–	–	–	–	–	–	0.136
x2 = 0.05806	–	–	–	–	–	–	–	–	–	0.386
x2 = 0.09556	0.711	0.836	0.963	1.12	1.29	1.5	1.71	1.95	2.21	2.52
x2 = 0.1412	1	1.18	1.36	1.59	1.83	2.13	2.43	2.78	3.15	3.58
x2 = 0.1978	1.13	1.35	1.6	1.86	2.18	2.55	2.94	3.38	3.84	4.38
x2 = 0.27	1.26	1.53	1.81	2.13	2.52	2.94	3.38	3.91	4.51	5.2
x2 = 0.3652	1.39	1.68	2.03	2.4	2.83	3.31	3.89	4.51	5.18	5.97
x2 = 0.4965	1.5	1.85	2.23	2.67	3.17	3.69	4.34	5.06	5.84	6.7
x2 = 0.6893	1.59	1.97	2.39	2.87	3.39	3.97	4.66	5.5	6.38	7.36

O=C(O)c1ccc(C(=O)O)o1 + O + COCCOCCOC
solubility (g/100 g solution)
Conditions	x2 = 0.1	x2 = 0.2	x2 = 0.3	x2 = 0.4	x2 = 0.5	x2 = 0.6	x2 = 0.7	x2 = 0.8	x2 = 0.9
303.15 K	1.37	2.07	2.83	4.05	5.13	6.23	6.17	5.55	3.4
308.15 K	1.42	2.15	2.96	4.22	5.35	6.45	6.42	5.78	3.72
313.15 K	1.47	2.23	3.09	4.4	5.58	6.69	6.69	6.02	4.05
318.15 K	1.53	2.34	3.23	4.59	5.79	6.96	6.97	6.3	4.34
323.15 K	1.59	2.46	3.37	4.79	6.03	7.25	7.28	6.59	4.64
328.15 K	1.67	2.56	3.53	5	6.29	7.62	7.59	6.96	4.91
333.15 K	1.74	2.68	3.71	5.23	6.58	8.03	7.93	7.36	5.21
338.15 K	1.84	2.83	3.88	5.46	6.96	8.47	8.33	7.78	5.51
343.15 K	1.92	2.94	4.01	5.62	7.24	8.75	8.61	8.14	5.75
348.15 K	2	3.1	4.17	5.84	7.52	9.16	9.15	8.46	6.05
353.15 K	2.07	3.25	4.3	6.03	7.75	9.47	9.63	8.76	6.31

Nc1cncc(Cl)n1 + CC(O)CO + O
solubility (g/100 g solution)
Conditions	278.15 K	283.15 K	288.15 K	293.15 K	298.15 K	303.15 K	308.15 K	313.15 K	318.15 K	323.15 K
x2 = 0.02564	–	–	–	–	–	–	–	–	–	0.0333
x2 = 0.0559	–	–	–	–	–	–	–	–	–	0.0456
x2 = 0.09214	0.064	0.0784	0.093	0.112	0.133	0.158	0.185	0.216	0.25	0.292
x2 = 0.1364	0.0887	0.109	0.129	0.156	0.184	0.218	0.255	0.297	0.343	0.401
x2 = 0.1915	0.112	0.137	0.166	0.2	0.239	0.281	0.33	0.384	0.445	0.521
x2 = 0.2621	0.135	0.168	0.206	0.251	0.298	0.351	0.413	0.48	0.555	0.649
x2 = 0.3559	0.156	0.196	0.237	0.29	0.345	0.406	0.479	0.557	0.644	0.757
x2 = 0.4865	0.159	0.205	0.253	0.308	0.371	0.435	0.512	0.599	0.694	0.815
x2 = 0.6806	0.159	0.201	0.247	0.307	0.365	0.431	0.508	0.593	0.688	0.814

O=C(O)c1cc([N+](=O)[O-])ccc1O + CN(C)C=O + O
solubility (g/100 g solution)
Conditions	278.15 K	283.15 K	288.15 K	293.15 K	298.15 K	303.15 K	308.15 K	313.15 K	318.15 K	323.15 K
x2 = 0.02666	0.182	0.224	0.277	0.352	0.437	0.534	0.645	0.775	0.924	1.1
x2 = 0.05806	0.538	0.682	0.832	1	1.26	1.54	1.85	2.17	2.56	3.01
x2 = 0.09556	1.2	1.45	1.81	2.17	2.65	3.12	3.74	4.38	5.16	6.11
x2 = 0.1412	2.33	2.71	3.27	3.93	4.66	5.53	6.45	7.43	8.54	9.8
x2 = 0.1978	3.78	4.51	5.41	6.42	7.5	8.84	10.3	11.9	13.5	15.4
x2 = 0.27	6.74	7.37	8.61	10.2	11.7	13.4	15.2	17.2	19.3	21.5
x2 = 0.3652	10.9	11.7	12.9	14.8	16.9	19	21.2	23.5	26.2	29.4
x2 = 0.4965	14.7	15.3	16.7	19.3	21.5	24	26.1	29.3	32.3	35.7
x2 = 0.6893	16.7	17.7	19.4	21.5	23.8	26.6	29	31.8	35.4	38.8

O=C(O)c1ccc(C(=O)O)o1 + O + COCCOC
solubility (g/100 g solution)
Conditions	303.15 K	308.15 K	313.15 K	318.15 K	323.15 K	328.15 K	333.15 K	338.15 K	343.15 K
x2 = 0.1	1.42	1.44	1.5	1.57	1.65	1.75	1.83	1.93	2.05
x2 = 0.2	2.73	2.79	2.9	3.02	3.16	3.31	3.48	3.7	3.94
x2 = 0.3	3.75	3.9	4.06	4.22	4.39	4.58	4.79	5.05	5.33
x2 = 0.4	4.61	4.81	5.03	5.24	5.47	5.78	6.11	6.45	6.82
x2 = 0.5	5.53	5.75	6.03	6.31	6.69	7.05	7.45	7.81	8.16
x2 = 0.6	6.14	6.36	6.59	6.86	7.15	7.49	7.86	8.22	8.61
x2 = 0.7	5.57	5.8	6.08	6.35	6.64	6.93	7.24	7.62	8.03
x2 = 0.8	4.68	4.88	5.09	5.35	5.55	5.83	6.13	6.48	6.86
x2 = 0.9	4.41	4.57	4.74	4.91	5.11	5.32	5.55	5.87	6.22

O=C1CCc2ccc(OCCCCN3CCN(c4cccc(Cl)c4Cl)CC3)cc2N1 + CCC(C)=O + CCOC(C)=O
solubility (g/100 g solution)
Conditions	278.15 K	283.15 K	288.15 K	293.15 K	298.15 K	303.15 K	308.15 K	313.15 K	318.15 K
x2 = 0.1	0.601	0.745	0.882	1.04	1.24	1.57	1.88	2.26	2.76
x2 = 0.2	0.641	0.794	0.953	1.12	1.37	1.74	2.08	2.45	2.98
x2 = 0.3	0.681	0.845	1.04	1.22	1.48	1.91	2.28	2.68	3.24
x2 = 0.4	0.73	0.907	1.14	1.32	1.61	2.06	2.48	2.92	3.53
x2 = 0.5	0.778	0.975	1.23	1.44	1.75	2.22	2.66	3.16	3.8
x2 = 0.6	0.825	1.05	1.32	1.57	1.89	2.39	2.86	3.4	4.12
x2 = 0.7	0.879	1.13	1.43	1.69	2.03	2.55	3.04	3.65	4.42
x2 = 0.8	0.948	1.22	1.53	1.83	2.18	2.72	3.25	3.87	4.75
x2 = 0.9	1.04	1.34	1.63	1.98	2.36	2.91	3.48	4.12	5.04

Oc1ccc(Cl)c2cccnc12 + CCCOC(C)=O + CCO
solubility (g/100 g solution)
Conditions	278.15 K	283.15 K	288.15 K	293.15 K	298.15 K	303.15 K	308.15 K	313.15 K	318.15 K	323.15 K
x2 = 0.1013	1.48	1.74	2.02	2.4	2.82	3.28	3.89	4.6	5.52	6.43
x2 = 0.2214	1.97	2.29	2.69	3.2	3.76	4.43	5.18	6.1	7.46	8.81
x2 = 0.4035	2.41	2.81	3.3	3.87	4.53	5.41	6.43	7.55	8.8	10.5
x2 = 0.6434	2.74	3.26	3.83	4.52	5.3	6.25	7.27	8.56	9.99	11.7

Source: the CheMixHub drug solubility set
